For series [1] the following is noted: mouse, in vivo.
The test system of series [2] is B. anthracis Sterne strain spores. Details: species or system Bacillus anthracis. As to conditions: in vivo.

This is an account of results in patent US9012608B2 (priority 2007, dated 2015).

Molecules are shown by their SMILES.

Regarding `O=C(O)c1cn(C2CC2)c2cc(N3CCNCC3)c(F)cc2c1=O` [ciprofloxacin], the “tolerance to selected dose” value in series [1] is listed as “favorably tested”. As for `C[C@H]1c2cccc(O)c2C(=O)C2=C(O)[C@]3(O)C(=O)C(C(N)=O)=C(O)[C@@H](N(C)C)[C@@H]3[C@@H](O)[C@@H]21` [doxycycline], the tolerance result in series [1] was “not well tolerated”. `CN(C)[C@@H]1C(O)=C(C(N)=O)C(=O)[C@@]2(O)C(O)=C3C(=O)c4c(O)cccc4[C@@](C)(O)[C@H]3C[C@@H]12` [tetracycline] had a survival in series [2] of 60%.
